From publication PMC5133556, “Design of a hydroxyapatite-binding antimicrobial peptide with improved retention and antibacterial efficacy for oral pathogen control” (Scientific Reports, 2016) come the findings set out here.

In general, fraction remaining refers to the share of the starting amount still present when the sample was taken. Lower therefore signals more turnover.

In data set [1] the test system is S. mutans. Description: Time-kill assay. The class given is cell-based, Streptococcus mutans. Particulars: 0.12%, 10^6 CFU/mL, CFU counts. How it is done:
The time-kill kinetics of HBAMP against S. mutans was determined by time-kill assay as previously described. S. mutans was grown to exponential phase and diluted to 10^6 CFU/mL in growth medium. […] Bacterial suspension in other tubes that were added with 0.12% CHX and PBS served as the positive and blank control groups, respectively. At time points of 0, 10, 20, 30, 40, 60, and 90 min, 10 μL of cell suspension was collected, serially diluted in PBS and then 50 μL of aliquots were plated onto BHI agar plates. Colony forming units were counted after the plates were incubated anaerobically at 37 °C for 24 h.

In data set [2] the test system is Actinomyces viscosus (ATCC 19246). The class given is cell-based. Particulars: ATCC 19246, 24 h. On the procedure:
(§1) Streptococcus sanguinis (ATCC 10556), Actinomyces viscosus (ATCC 19246), Streptococcus mutans (ATCC 25175), were grown in Brain Heart Infusion (BHI; Difco, Detroit, MI, USA) culture medium. Lactobacillus acidophilus (ATCC 4356) was grown in de Man, Rogosa and Sharpe (MRS; Difco, Detroit, MI, USA) culture medium. BHIS (BHI with 2% sucrose) was used for growing S. mutans biofilm. All cultures were grown anaerobically (80% N2, 10% H2 and 10% CO2) at 37 °C. According to the growth curve of bacteria, the exponentially growing cells were harvested by centrifugation and diluted in BHI or MRS to 10^6 CFU/mL based on a regression line derived from McFarland turbidity standards (Pro-Lab Diagnostics, Richmond Hill, ON, Canada).
(§2) MIC and MBC assays were conducted according to the consensus guidelines developed by the Clinical and Laboratory Standards Institute (CLSI)[24]. Two-fold serial dilutions of peptides were prepared in culture medium at a volume of 200 μl/well in 96-well plates and the final concentrations of peptides ranged from 31.25 μg/ml to 2000 μg/ml. Chlorhexidine (0.12%) and culture medium were included as the positive and control group, respectively. Then each well was seeded with 20 μL of bacterial cell suspension (10^6 CFU/mL). The plates were incubated anaerobically at 37 °C for 24 h. The MIC was defined as the lowest concentration of peptide that prevents visible growth of the bacteria tested. […] The MBC was defined as the lowest concentration of peptide resulting in no colony formation on agar plates. All determinations were made from triplicate experiments.

Data set [3] relates to Lactobacillus acidophilus (ATCC 4356). Format: cell-based. The conditions noted are these: ATCC 4356, 24 h. How it is done:
as §1, §2

In data set [4] the test system is Streptococcus mutans (ATCC 25175). Format: cell-based. The conditions noted are these: ATCC 25175, 24 h. How it is done: as §1, §2
The subject of data set [5] is Streptococcus sanguinis (ATCC 10556). Format: cell-based. The conditions noted are these: ATCC 10556, 24 h. How it is done: as §1, §2
Data set [6] concerns S. mutans biofilm. The class given is cell-based. The conditions noted are these: 250 μg/ml (2× MIC), 10 min treatment of 12 h biofilm on HAp. How it is done: S. mutans biofilms were grown on the surface of HAp disks that were placed in 24-well plate. Each well of the plate was inoculated with 2 ml of S. mutans in BHIS (10^6 CFU/mL). After incubation anaerobically at 37 °C for 12 h, the HAp disks were washed twice with sterile deionized water and then respectively treated with HBAMP (2× and 4× MIC) and CHX (0.12%) for 10 min. Then biofilms were stained for 20 min in the dark using the LIVE/DEAD® BacLight^TM Bacterial Viability Kit. The biofilm without treatment served as control. Stained biofilms were photographed by CLSM with a 20× objective. Three independent biofilm experiments were performed.

Data set [7] can be described thus: in vitro. The class given is in vitro ADME. The conditions noted are these: both sexes, human, cerebrospinal or other body fluid. On the procedure: The protocols in this section were approved by the Ethics Committee of Zhongshan Hospital, Xiamen University. The methods employed were performed in accordance with the approved guidelines. After acquiring informed consent, human saliva was collected from individual volunteers (two males and two females; Minimum age: 22; maximum age: 28) in the morning prior to oral cleaning. The collected saliva samples were centrifuged at 12,000 rpm for 20 min. The supernatant was collected and filtered through the […] membrane filter to remove any debris. HBAMP was added into the human saliva to achieve the final concentration of 500 μg/ml. The saliva with HBAMP was incubated at 37 °C. At 0, 5, 20 and 60 min, 1 ml samples were taken from the total sample and served in the specific sample bottles, the machine will automatically extract samples from the bottles to detect. The samples were analysed by reversed-phase HPLC using Zorbax Eclipse XDB-C18 analytical column (150 × 4.6 mm, Agilent Technologies, Inc., Santa Clara, CA, USA) protected by a XDB-C18 guard column (4 × 4 mm). For the elution of HBAMP, a flow rate of 1.2 mL/min and a linear gradient from 88:12 to 65:35 (0.1% TFA in water: 0.1% TFA in acetonitrile) for 10 min were employed. Total run time of HPLC-UV (215 nm) analysis was 15 min and the injection volume was set at 40 μL.

SMILES strings stand for the structures. Values after ≈ are worked out from the molar mass of the structure shown. Residues, ends and D or L forms follow the SMILES beside them.

`[H]/N=C(\N/C(=N/[H])NCCCCCCNC(=N)NC(=N)Nc1ccc(Cl)cc1)Nc1ccc(Cl)cc1` [CHX, chlorhexidine]: the “time to kill S. mutans” value in data set [1] is reported as no more than 10 min.

For the compound `CC(C)[C@H](NC(=O)[C@H](Cc1c[nH]c2ccccc12)NC(=O)[C@H](Cc1ccccc1)NC(=O)[C@@H](NC(=O)[C@@H](NC(=O)[C@H](CCCCN)NC(=O)[C@@H](N)CCCCN)C(C)C)C(C)C)C(=O)N[C@@H](CCCCN)C(=O)N[C@@H](Cc1ccccc1)C(=O)N[C@@H](CCCCN)C(=O)O` [KSLW, reference compound] (H-KKVVFWVKFK-OH), in data set [2], the “MBC, A. viscosus” value turned out to be 500 µg/mL (≈ 382 µM) and the “MIC, A. viscosus” value stood at 125 µg/mL (≈ 95.5 µM). Besides, in data set [3], the “MBC, L. acidophilus” value turned out to be 125 µg/mL (≈ 95.5 µM) and the “MIC, L. acidophilus” value amounted to 62.5 µg/mL (≈ 47.8 µM). In addition, in data set [4], the “MBC, S. mutans” value amounted to 125 µg/mL (≈ 95.5 µM) and the “MIC, S. mutans” value worked out at 62.5 µg/mL (≈ 47.8 µM). Further, in data set [5], the “MBC, S. sanguinis” value is 2000 µg/mL (≈ 1530 µM) and the “MIC, S. sanguinis” value was determined as 250 µg/mL (≈ 191 µM).

For `CC(C)C[C@H](NC(=O)[C@H](Cc1ccc(O)cc1)NC(=O)[C@H](Cc1c[nH]cn1)NC(=O)[C@H](CC(N)=O)NC(=O)[C@@H](N)CC(N)=O)C(=O)N1CCC[C@H]1C(=O)N[C@@H](CCCNC(=N)N)C(=O)NCC(=O)NCC(=O)NCC(=O)N[C@@H](CCCCN)C(=O)N[C@@H](CCCCN)C(=O)N[C@H](C(=O)N[C@H](C(=O)N[C@@H](Cc1ccccc1)C(=O)N[C@@H](Cc1c[nH]c2ccccc12)C(=O)N[C@H](C(=O)N[C@@H](CCCCN)C(=O)N[C@@H](Cc1ccccc1)C(=O)N[C@@H](CCCCN)C(=O)O)C(C)C)C(C)C)C(C)C` [HBAMP] (H-NNHYLPRGGGKKVVFWVKFK-OH), in data set [2], the “MBC, A. viscosus” value is 500 µg/mL (≈ 211 µM) and the “MIC, A. viscosus” value turned out to be 250 µg/mL (≈ 105 µM). Moreover, in data set [3], the “MBC, L. acidophilus” value is 250 µg/mL (≈ 105 µM) and the “MIC, L. acidophilus” value was 125 µg/mL (≈ 52.6 µM). In data set [4], the “MBC, S. mutans” value came out at 250 µg/mL (≈ 105 µM) and the “MIC, S. mutans” value came to 125 µg/mL (≈ 52.6 µM). In data set [5], the “MBC, S. sanguinis” value stood at 2000 µg/mL (≈ 842 µM) and the “MIC, S. sanguinis” value worked out at 500 µg/mL (≈ 211 µM). Besides, the “bacteria killed in S. mutans biofilm” value in data set [6] is “approximately 44.7%”. In data set [7], the fraction remaining at 1 h, 500 μg/ml is 80.5%.
